According to publication PMC10784468 (Nature Communications, 2024):
Read-outs that look alike come from different tables or passages of the source.

How the values were obtained:
GPX4 = target: T1, GPX4 (Homo sapiens, UniProt P36969); assay: Intracellular GPX4 activity detection; type: cell-based; parameters: endogenous in cells; host or cells: EJ bladder cancer cells
T1 sequence (P36969 1-197): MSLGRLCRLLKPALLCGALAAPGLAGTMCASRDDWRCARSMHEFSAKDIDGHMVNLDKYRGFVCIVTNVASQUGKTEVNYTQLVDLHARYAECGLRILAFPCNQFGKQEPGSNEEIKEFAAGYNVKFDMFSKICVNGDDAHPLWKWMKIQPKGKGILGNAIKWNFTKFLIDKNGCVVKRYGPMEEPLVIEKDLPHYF
Experimental: (§1) Initially, EJ cells (5 × 10^5) were cultured in 6-well plate with a CO2 incubator overnight at 37 °C. […] Next, EJ cells were collected and washed with PBS for 3 times. Afterwards, the cell lysates were collected by centrifugation at 5000 rpm for 10 min at 4 °C after ultrasonic lysis in an ice bath. Finally, the GPX4 activity were measured with a GPX Assay Kit based on the manufacturer’s instructions.

EJ cells [1] = assay: Intracellular GSH content detection; type: cell-based
Experimental: as §1, with “8000 g” for “5000 rpm”, “lysed by freeze-thaw treatment.” for “ultrasonic lysis in an ice bath.”, “GSH contents” for “GPX4 activity”, “GSH” for “GPX”

[2] = Hydrolysis of the peptide-porphyrin conjugates at pH 7.4 and 6.5 (dialysis, HPLC); type: physicochemical; details: for Hydrolysis of SA (%): mean
Experimental: In vitro hydrolysis analysis of the peptide-porphyrin conjugates was studied in pH values of 7.4 and 6.5 solutions. 20 mg of peptide-porphyrin conjugate was dissolved in 2 mL pH 7.4 buffer solution, which was then transferred into a dialysis bag (MWCO: 1000 Da) and immersed in 25 mL of different pH buffer solutions at 37 °C with continuous shaking respectively. At fixed time intervals (20 min, 40 min, 1 h, 2 h and 4 h), […] chromatography (HPLC, WATERS Alliance HPLC e2489), and an equal volume of fresh buffer solution was replaced to the system. In order to determine the CAA concentration according to the peak area of the CAA, a standard curve of the CAA was plotted, with the peak area as a function of the concentration. […]

EJ cells [3] = assay: Intracellular Fe2+ ions detection; type: cell-based
Experimental: Initially, EJ cells (5 × 10^5) were cultured in confocal dish with a CO2 incubator overnight at 37 °C. […] Afterwards, EJ cells were washed with PBS for 3 times and replaced with culture mediums.

HUVEC cells = type: cell-based; details: for Cell viability of HUVEC: HUVEC cells, pH=7.4
Experimental: Supplementary Fig. 27. Viability of HUVEC cells after treated with Gi -F (pH=7.4) and Gi-F-CAA (pH=7.4) at different
concentrations for 48 h (n=3 experimental repeats). Experiment was independently repeated three times with
(1 picture or pasted object on this page, not shown here)

Particle size by DLS = type: physicochemical; details: 40 μM, PBS 0.01 M, pH 6.5, with GPX4; Supplementary Fig. 18
Experimental: Nano-ZS 3600 (Malvern Instruments, UK) was used to measure the size distribution of the peptide-porphyrin conjugate solutions. The conjugate solutions (40 μM) were incubated at pH 7.4 or pH 6.5 before measurements. An average value was determined by three repeated measurements at 25 °C for each sample. Besides, transmission electron microscopy (TEM, Tecnai G2 20 S-TWIN) was conducted to observe the morphology and diameters of conjugates in aqueous solution, The conjugates (50 μL, 40 μM) were kept in PB solution at pH 7.4 or pH 6.5, which were dropped on copper meshes. After 5 min, unnecessary liquid was removed and the uranyl acetate solution (10 μL) was dropped on this copper mesh to stain the samples for 10 min. Finally, the copper meshes were washed with deionized water, and dried at room temperature for observation.

Substance: FeTCPP-LKLKLK(SA)GACNWLPLYPCPV (disulfide) [Gi-F-SA, control conjugate decorated with non-sensitive succinic anhydride (SA) moieties]
- Relative activity of GPX4 (GPX4; EJ cells, 8 h, pH 7.4, PBS group normalized as 1, #1): 0.62
- Relative activity of GPX4 (GPX4; EJ cells, 8 h, pH 7.4, PBS group normalized as 1, #2): 0.59
- Relative activity of GPX4 (GPX4; EJ cells, 8 h, pH 7.4, PBS group normalized as 1, #3): 0.73
- Relative activity of GPX4 (GPX4; pH=7.4, replicate #1): 0.61
- Relative activity of GPX4 (GPX4; pH=7.4, replicate #2): 0.62
- Relative activity of GPX4 (GPX4; pH=7.4, replicate #3): 0.66
- Relative GSH levels (EJ cells [1]; pH=7.4, replicate #1): 0.589
- Relative GSH levels (EJ cells [1]; pH=7.4, replicate #2): 0.628
- Relative GSH levels (EJ cells [1]; pH=7.4, replicate #3): 0.53
- Hydrolysis of SA (%) ([2]; pH 6.5, 0 min): 0%
- Hydrolysis of SA (%) ([2]; pH 6.5, 20 min): 1.1%
- Hydrolysis of SA (%) ([2]; pH 6.5, 40 min): 1.9%
- Hydrolysis of SA (%) ([2]; pH 6.5, 60 min): 2.1%
- Hydrolysis of SA (%) ([2]; pH 6.5, 120 min): 2.1%
- Hydrolysis of SA (%) ([2]; pH 6.5, 240 min): 2.3%
- hydrolysis at pH 6.5 and 7.4 ([2]; pH 6.5 and 7.4, HPLC, Supplementary Fig. 11): little hydrolysis
- Hydrolysis of SA (%) ([2]; pH 7.4, 0 min): 0%
- Hydrolysis of SA (%) ([2]; pH 7.4, 20 min): 1%
- Hydrolysis of SA (%) ([2]; pH 7.4, 40 min): 1.2%
- Hydrolysis of SA (%) ([2]; pH 7.4, 60 min): 1.6%
- Hydrolysis of SA (%) ([2]; pH 7.4, 120 min): 1.9%
- Hydrolysis of SA (%) ([2]; pH 7.4, 240 min): 2.4%
- intracellular Fe^2+ (FerroOrange fluorescence), pH 7.4 (EJ cells [3]; EJ cells, pH 7.4, 8 h): no remarkable fluorescence
- Concentrations of Fe2+ ions (EJ cells [3]; pH=7.4, replicate #1): 13.222 ng/104cells
- Concentrations of Fe2+ ions (EJ cells [3]; pH=7.4, replicate #2): 11.221 ng/104cells
- Concentrations of Fe2+ ions (EJ cells [3]; pH=7.4, replicate #3): 12.7 ng/104cells

Substance: FeTCPP-LKLKLKGACNWLPLYPCPV (disulfide) [Gi-F]
- Cell viability of HUVEC (HUVEC cells; log concentration (μM) 0, replicate 1): 101.3%
- Cell viability of HUVEC (HUVEC cells; log concentration (μM) 0, replicate 2): 99.35%
- Cell viability of HUVEC (HUVEC cells; log concentration (μM) 0, replicate 3): 85.17%
- Cell viability of HUVEC (HUVEC cells; log concentration (μM) 0.30103, replicate 1): 83.14%
- Cell viability of HUVEC (HUVEC cells; log concentration (μM) 0.30103, replicate 2): 92.08%
- Cell viability of HUVEC (HUVEC cells; log concentration (μM) 0.30103, replicate 3): 87.75%
- Cell viability of HUVEC (HUVEC cells; log concentration (μM) 0.60206, replicate 1): 84.4%
- Cell viability of HUVEC (HUVEC cells; log concentration (μM) 0.60206, replicate 2): 84.96%
- Cell viability of HUVEC (HUVEC cells; log concentration (μM) 0.60206, replicate 3): 81.47%
- Cell viability of HUVEC (HUVEC cells; log concentration (μM) 0.90309, replicate 1): 84.05%
- Cell viability of HUVEC (HUVEC cells; log concentration (μM) 0.90309, replicate 2): 81.61%
- Cell viability of HUVEC (HUVEC cells; log concentration (μM) 0.90309, replicate 3): 70.99%
- Cell viability of HUVEC (HUVEC cells; log concentration (μM) 1.20412, replicate 1): 70.71%
- Cell viability of HUVEC (HUVEC cells; log concentration (μM) 1.20412, replicate 2): 64.63%
- Cell viability of HUVEC (HUVEC cells; log concentration (μM) 1.20412, replicate 3): 61.91%
- Cell viability of HUVEC (HUVEC cells; log concentration (μM) 1.50515, replicate 1): 57.51%
- Cell viability of HUVEC (HUVEC cells; log concentration (μM) 1.50515, replicate 2): 49.41%
- Cell viability of HUVEC (HUVEC cells; log concentration (μM) 1.50515, replicate 3): 55.06%
- Cell viability of HUVEC (HUVEC cells; log concentration (μM) 1.80618, replicate 1): 45.98%
- Cell viability of HUVEC (HUVEC cells; log concentration (μM) 1.80618, replicate 2): 47.94%
- Cell viability of HUVEC (HUVEC cells; log concentration (μM) 1.80618, replicate 3): 46.54%
- Cell viability of HUVEC (HUVEC cells; log concentration (μM) 2.10721, replicate 1): 37.74%
- Cell viability of HUVEC (HUVEC cells; log concentration (μM) 2.10721, replicate 2): 31.25%
- Cell viability of HUVEC (HUVEC cells; log concentration (μM) 2.10721, replicate 3): 33.97%
- Cell viability of HUVEC (HUVEC cells; log concentration (μM) 2.40824, replicate 1): 21.61%
- Cell viability of HUVEC (HUVEC cells; log concentration (μM) 2.40824, replicate 2): 25.66%
- Cell viability of HUVEC (HUVEC cells; log concentration (μM) 2.40824, replicate 3): 20.7%
- cytotoxicity toward normal cells compared with Gi-F-CAA (HUVEC cells; pH 7.4): obvious increased cytotoxicity
- particle size (DLS) after incubation with GPX4 (Particle size by DLS): ~ 90 ± 9 nm
